Test results reported in ChEMBL document CHEMBL5120944, “Neocucurbols A-H, Phomactin Diterpene Derivatives from the Marine-Derived Fungus Neocucurbitaria unguis-hominis FS685” (J Nat Prod, 2022).

Experiments:
Type in all cases: toxicity, cell-based
[1] = Cytotoxicity against human SF-268 cells assessed as reduction in cell viability after 24 hrs by SRB assay
[2] = Cytotoxicity against human HepG2 cells assessed as reduction in cell viability after 24 hrs by SRB assay
[3] = Cytotoxicity against human A549 cells assessed as reduction in cell viability after 24 hrs by SRB assay
[4] = Cytotoxicity against human MCF7 cells assessed as reduction in cell viability after 24 hrs by SRB assay

Measured: IC50 at 24 h

C=C1CC[C@@]2(C)[C@H](C)CC=C([C@@H]3[C@@H]1CC[C@](C)(O)[C@H]3O)[C@H]2C
> 10 µM: all assays above

CC1=CC[C@@H]2[C@@]3(C)CC[C@@]4(C)[C@H](C)CC(=O)[C@H]5[C@@]2(O[C@@H]3[C@]54O)[C@H]1O
> 10 µM: all assays above

CC1=CC[C@H]2[C@]3(O[C@H]4[C@]2(C)[C@@H](O)C[C@@]2(C)[C@H](C)CC=C3[C@@]42O)[C@H]1O
> 10 µM: all assays above

CC1=CC[C@@H]2[C@@]3(C)CC[C@@]4(C)[C@H](C)[C@@H](O)C=C5[C@@]2(O[C@@H]3[C@]54O)[C@H]1O
> 10 µM: all assays above

CC1=CC[C@@H]2[C@@]3(C)CC[C@]4(C)C5=C([C@@H](O)C[C@H]4C)[C@@]2(O[C@H]53)[C@H]1O
> 10 µM: all assays above

C/C1=C/C[C@@]2(C)[C@H](C)CC=C([C@@H]3[C@@H]1CC[C@](C)(O)[C@H]3O)[C@H]2C
> 10 µM: all assays above

C[C@@H]1CC=C2[C@H]3[C@H](O)[C@@](C)(O)CC[C@@H]3[C@@](C)(O)CC[C@]1(C)[C@@H]2C
> 10 µM: all assays above

C=C1CC[C@@]2(C)[C@H](C)C[C@@H]3O[C@]3([C@@H]3[C@@H]1CC[C@](C)(O)[C@H]3O)[C@H]2C
> 10 µM: all assays above
